System: MV-4-11 cells
Assay: Gene expression microarray analysis (Affymetrix PrimeView) and GSEA
Type: cell-based, human
Parameters: RFU PODN (11730768_x_at) / Fold change /veh PODN (11730768_x_at) / RFU LINC00158 (11744669_a_at) / Fold change /veh LINC00158 (11744669_a_at) / RFU DUSP10 (11751237_a_at) / Fold change /veh DUSP10 (11751237_a_at) / RFU ID3 (11757404_x_at) / Fold change /veh ID3 (11757404_x_at) / RFU PLEKHG5 (11737974_s_at) / Fold change /veh PLEKHG5 (11737974_s_at) / RFU LRRC4B (11730491_at) / Fold change /veh LRRC4B (11730491_at) / RFU GIMAP4 (11747438_a_at) / Fold change /veh GIMAP4 (11747438_a_at) / RFU KRT8 (11758183_x_at) / Fold change /veh KRT8 (11758183_x_at) / RFU CNN1 (11734310_a_at) / Fold change /veh CNN1 (11734310_a_at) / RFU VPS37D (11726825_at) / Fold change /veh VPS37D (11726825_at) / RFU C10orf10 (11716522_x_at) / Fold change /veh C10orf10 (11716522_x_at) / RFU KIR2DL2 /// KIR2DL4 /// KIR2DL5A /// KIR2DL5B /// KIR2DS1 /// KIR2DS2 /// KIR2DS3 /// KIR2DS4 /// KIR3DL3 /// KIR3DL3 /// KIR3DS1 (11738374_at) / Fold change /veh KIR2DL2 /// KIR2DL4 /// KIR2DL5A /// KIR2DL5B /// KIR2DS1 /// KIR2DS2 /// KIR2DS3 /// KIR2DS4 /// KIR3DL3 /// KIR3DL3 /// KIR3DS1 (11738374_at) / RFU C1QL1 (11718748_at) / Fold change /veh C1QL1 (11718748_at) / RFU TMPRSS4 (11747572_a_at) / Fold change /veh TMPRSS4 (11747572_a_at) / RFU HAMP (11756126_x_at) / Fold change /veh HAMP (11756126_x_at) / RFU RNFT2 (11725882_a_at) / Fold change /veh RNFT2 (11725882_a_at) / RFU NR4A2 (11747474_a_at) / Fold change /veh NR4A2 (11747474_a_at) / RFU ABCC12 (11746883_a_at) / Fold change /veh ABCC12 (11746883_a_at) / RFU TMEM136 (11760407_x_at) / Fold change /veh TMEM136 (11760407_x_at) / RFU CLDN22 /// WWC2 (11732394_at) / Fold change /veh CLDN22 /// WWC2 (11732394_at) / RFU HLA-DPB1 (11760878_x_at) / Fold change /veh HLA-DPB1 (11760878_x_at) / RFU SPINT1 (11716480_a_at) / Fold change /veh SPINT1 (11716480_a_at) / RFU GAP43 (11754022_s_at) / Fold change /veh GAP43 (11754022_s_at) / RFU A4GNT (11735810_at) / Fold change /veh A4GNT (11735810_at) / RFU PRB3 (11715151_x_at) / Fold change /veh PRB3 (11715151_x_at) / RFU TUBB4B (11761932_at) / Fold change /veh TUBB4B (11761932_at) / RFU CAPN14 (11732068_a_at) / Fold change /veh CAPN14 (11732068_a_at) / RFU TMCC2 (11721928_a_at) / Fold change /veh TMCC2 (11721928_a_at) / RFU IRGQ (11745062_a_at) / Fold change /veh IRGQ (11745062_a_at) / RFU FAM174B (11720279_a_at) / Fold change /veh FAM174B (11720279_a_at) / RFU TMPRSS4 (11748680_a_at) / Fold change /veh TMPRSS4 (11748680_a_at) / RFU FAM212B (11763350_a_at) / Fold change /veh FAM212B (11763350_a_at) / RFU PLEKHG5 (11743358_a_at) / Fold change /veh PLEKHG5 (11743358_a_at) / RFU ZSCAN30 (11745921_a_at) / Fold change /veh ZSCAN30 (11745921_a_at) / RFU CMKLR1 (11741424_a_at) / Fold change /veh CMKLR1 (11741424_a_at) / RFU LOC101060620 /// MAPK8IP1 (11723275_at) / Fold change /veh LOC101060620 /// MAPK8IP1 (11723275_at) / RFU SPTSSB (11747773_x_at) / Fold change /veh SPTSSB (11747773_x_at) / RFU PRSS12 (11739890_at) / Fold change /veh PRSS12 (11739890_at) / RFU BIN1 (11741810_x_at) / Fold change /veh BIN1 (11741810_x_at) / RFU WNT11 (11732464_a_at) / Fold change /veh WNT11 (11732464_a_at) / RFU C10orf10 (11716521_a_at) / Fold change /veh C10orf10 (11716521_a_at) / RFU C5orf56 (11738089_at) / Fold change /veh C5orf56 (11738089_at) / RFU CYB561 (11721691_x_at) / Fold change /veh CYB561 (11721691_x_at) / RFU ANKRD19P (11752326_a_at) / Fold change /veh ANKRD19P (11752326_a_at) / RFU OR2T12 /// OR2T33 /// OR2T8 (11738714_s_at) / Fold change /veh OR2T12 /// OR2T33 /// OR2T8 (11738714_s_at) / RFU VCAN (11748164_a_at) / Fold change /veh VCAN (11748164_a_at) / RFU JSRP1 (11732532_at) / Fold change /veh JSRP1 (11732532_at) / RFU KRTAP10-11 (11738290_x_at) / Fold change /veh KRTAP10-11 (11738290_x_at) / RFU MYO3A (11730013_a_at) / Fold change /veh MYO3A (11730013_a_at) / RFU EBF3 (11725865_a_at) / Fold change /veh EBF3 (11725865_a_at) / RFU CAMK2N1 (11719241_x_at) / Fold change /veh CAMK2N1 (11719241_x_at) / RFU C5orf56 (11738088_a_at) / Fold change /veh C5orf56 (11738088_a_at) / RFU OLFML3 (11715873_a_at) / Fold change /veh OLFML3 (11715873_a_at) / RFU LOC100653217 /// NTM (11731650_a_at) / Fold change /veh LOC100653217 /// NTM (11731650_a_at) / RFU MAPK11 (11762145_a_at) / Fold change /veh MAPK11 (11762145_a_at) / RFU FIZ1 (11724087_x_at) / Fold change /veh FIZ1 (11724087_x_at) / RFU OASL (11726364_x_at) / Fold change /veh OASL (11726364_x_at) / RFU SOX15 (11748057_x_at) / Fold change /veh SOX15 (11748057_x_at) / RFU CD79A (11719716_a_at) / Fold change /veh CD79A (11719716_a_at) / RFU HIST1H1D (11736915_at) / Fold change /veh HIST1H1D (11736915_at) / RFU CASKIN2 (11723855_a_at) / Fold change /veh CASKIN2 (11723855_a_at) / RFU LOC730098 (11760151_x_at) / Fold change /veh LOC730098 (11760151_x_at) / RFU OR4N2 (11742367_at) / Fold change /veh OR4N2 (11742367_at) / RFU PRRT2 (11749266_a_at) / Fold change /veh PRRT2 (11749266_a_at) / RFU SNX32 (11753110_a_at) / Fold change /veh SNX32 (11753110_a_at) / RFU CDHR5 (11726645_a_at) / Fold change /veh CDHR5 (11726645_a_at) / RFU RCAN1 (11760418_a_at) / Fold change /veh RCAN1 (11760418_a_at) / RFU FAM167A (11723789_a_at) / Fold change /veh FAM167A (11723789_a_at) / RFU FAM26E (11764081_at) / Fold change /veh FAM26E (11764081_at) / RFU ISYNA1 (11749810_s_at) / Fold change /veh ISYNA1 (11749810_s_at) / RFU ACY1 (11761880_at) / Fold change /veh ACY1 (11761880_at) / RFU 11764098_at / Fold change /veh 11764098_at / RFU SAMD14 (11745864_x_at) / Fold change /veh SAMD14 (11745864_x_at) / RFU NPB (11741838_a_at) / Fold change /veh NPB (11741838_a_at) / RFU TMPRSS6 (11731388_a_at) / Fold change /veh TMPRSS6 (11731388_a_at) / RFU KRTAP10-2 (11738614_at) / Fold change /veh KRTAP10-2 (11738614_at) / RFU ARHGAP8 /// PRR5-ARHGAP8 (11727945_x_at) / Fold change /veh ARHGAP8 /// PRR5-ARHGAP8 (11727945_x_at) / RFU KRTAP5-7 /// NADSYN1 (11734609_at) / Fold change /veh KRTAP5-7 /// NADSYN1 (11734609_at) / RFU RASL12 (11751679_a_at) / Fold change /veh RASL12 (11751679_a_at) / RFU CDKN2B (11736163_a_at) / Fold change /veh CDKN2B (11736163_a_at) / RFU PRF1 (11729649_at) / Fold change /veh PRF1 (11729649_at) / RFU, ZNF638 /// ZNF638-IT1 / Fold change vs veh, ZNF638 /// ZNF638-IT1 / RFU, PANK3 / Fold change vs veh, PANK3 / RFU, SH3YL1 / Fold change vs veh, SH3YL1 / RFU, ZEB2 / Fold change vs veh, ZEB2 / RFU, NRIP1 / Fold change vs veh, NRIP1 / RFU, PTTG1IP / Fold change vs veh, PTTG1IP / RFU, CAPN2 / Fold change vs veh, CAPN2 / RFU, MED14 / Fold change vs veh, MED14 / RFU, SNORA58 / Fold change vs veh, SNORA58 / RFU, C1orf63 / Fold change vs veh, C1orf63 / RFU, LRRFIP1 / Fold change vs veh, LRRFIP1 / RFU, NDUFAF7 / Fold change vs veh, NDUFAF7 / RFU, SLC12A2 / Fold change vs veh, SLC12A2 / RFU, IBTK / Fold change vs veh, IBTK / RFU, ESF1 / Fold change vs veh, ESF1 / Fold change vs veh, TMEM50B / RFU, TAOK1 / Fold change vs veh, TAOK1 / RFU, ACBD3 / Fold change vs veh, ACBD3 / RFU, TMA16 / Fold change vs veh, TMA16 / RFU, RWDD3 / Fold change vs veh, RWDD3 / RFU, BCAT1 / Fold change vs veh, BCAT1 / RFU, EDEM3 / Fold change vs veh, EDEM3 / RFU, TMEM33 / Fold change vs veh, TMEM33 / RFU, WDR75 / Fold change vs veh, WDR75 / RFU, AHCTF1 / Fold change vs veh, AHCTF1 / RFU, TFRC / Fold change vs veh, TFRC / RFU, ZDHHC17 / Fold change vs veh, ZDHHC17 / RFU, NOM1 / Fold change vs veh, NOM1 / RFU, ARL8B / Fold change vs veh, ARL8B / RFU, ZBTB11 / Fold change vs veh, ZBTB11 / RFU, TAMM41 / Fold change vs veh, TAMM41 / RFU, KIAA1704 /// LOC100996395 / Fold change vs veh, KIAA1704 /// LOC100996395 / RFU, ING1 / Fold change vs veh, ING1 / RFU, TRMT61B / Fold change vs veh, TRMT61B / RFU, FUBP3 / Fold change vs veh, FUBP3 / RFU, TP53 / Fold change vs veh, TP53 / RFU, TNKS2 / Fold change vs veh, TNKS2 / RFU, ZFP14 / Fold change vs veh, ZFP14 / RFU, ACTR2 / Fold change vs veh, ACTR2 / RFU, PPP3R1 / Fold change vs veh, PPP3R1 / RFU, PIK3R1 / Fold change vs veh, PIK3R1 / RFU, HNRNPA1 / Fold change vs veh, HNRNPA1 / RFU, RNF170 / Fold change vs veh, RNF170 / RFU, ZNF28 / Fold change vs veh, ZNF28 / RFU, RNGTT / Fold change vs veh, RNGTT / RFU, OGT / Fold change vs veh, OGT / RFU, BRD1 / Fold change vs veh, BRD1 / RFU, MARS / Fold change vs veh, MARS / RFU, ZNF655 / Fold change vs veh, ZNF655 / RFU, FAHD1 / Fold change vs veh, FAHD1 / RFU, BDP1 / Fold change vs veh, BDP1 / RFU, LRRCC1 / Fold change vs veh, LRRCC1 / RFU, ARID1A / Fold change vs veh, ARID1A / RFU, ZNF146 / Fold change vs veh, ZNF146 / RFU, ZNF330 / Fold change vs veh, ZNF330 / RFU, GPN3 / Fold change vs veh, GPN3 / RFU, C9orf123 / Fold change vs veh, C9orf123 / RFU, N4BP2L2 / Fold change vs veh, N4BP2L2 / RFU, ARFIP1 / Fold change vs veh, ARFIP1 / RFU, FAM179B / Fold change vs veh, FAM179B / RFU, BCL10 / Fold change vs veh, BCL10 / RFU, UHRF1BP1L / Fold change vs veh, UHRF1BP1L / RFU, BET1 / Fold change vs veh, BET1 / RFU, CNOT2 / Fold change vs veh, CNOT2 / RFU, ZNF268 / Fold change vs veh, ZNF268 / Fold change vs veh, ZNF507 / RFU, DGCR2 / Fold change vs veh, DGCR2 / RFU, WDSUB1 / Fold change vs veh, WDSUB1 / Fold change vs veh, HSP90B1 /// MIR3652 / RFU, ADSS / Fold change vs veh, ADSS / RFU, GK / Fold change vs veh, GK / RFU, ZNF148 / Fold change vs veh, ZNF148 / RFU, TAF9 / Fold change vs veh, TAF9 / RFU, SLC1A5 / Fold change vs veh, SLC1A5 / RFU, SLMO2 / Fold change vs veh, SLMO2 / RFU, ABCC4 / Fold change vs veh, ABCC4 / RFU, LOC101060439 /// RAP1B / Fold change vs veh, LOC101060439 /// RAP1B / RFU, RFX7 / Fold change vs veh, RFX7 / RFU, GTPBP10 / Fold change vs veh, GTPBP10 / RFU, CNEP1R1 / Fold change vs veh, CNEP1R1 / RFU, BIVM-ERCC5 /// ERCC5 / Fold change vs veh, BIVM-ERCC5 /// ERCC5 / RFU, ILF3 / Fold change vs veh, ILF3 / RFU 11762660_at / Fold change /veh 11762660_at / RFU VCAN (11757783_s_at) / Fold change /veh VCAN (11757783_s_at) / RFU DDX43 (11728927_at) / Fold change /veh DDX43 (11728927_at) / RFU KRT8 (11758188_x_at) / Fold change /veh KRT8 (11758188_x_at) / RFU NKD1 (11759106_at) / Fold change /veh NKD1 (11759106_at) / RFU SRD5A1 (11742802_a_at) / Fold change /veh SRD5A1 (11742802_a_at) / RFU TPSAB1 /// TPSB2 (11721975_s_at) / Fold change /veh TPSAB1 /// TPSB2 (11721975_s_at) / RFU GSTM3 (11746129_a_at) / Fold change /veh GSTM3 (11746129_a_at) / RFU IL23R (11737362_x_at) / Fold change /veh IL23R (11737362_x_at) / RFU TMEM51 (11727254_a_at) / Fold change /veh TMEM51 (11727254_a_at) / RFU PIWIL2 (11732686_x_at) / Fold change /veh PIWIL2 (11732686_x_at) / RFU ORM1 (11744905_x_at) / Fold change /veh ORM1 (11744905_x_at) / RFU CCDC152 (11743942_at) / Fold change /veh CCDC152 (11743942_at) / RFU ECM1 (11717891_a_at) / Fold change /veh ECM1 (11717891_a_at) / RFU IL23R (11748794_a_at) / Fold change /veh IL23R (11748794_a_at) / RFU TNFAIP8L3 (11732012_x_at) / Fold change /veh TNFAIP8L3 (11732012_x_at) / RFU MBOAT4 (11741988_at) / Fold change /veh MBOAT4 (11741988_at) / RFU 11764193_at / Fold change /veh 11764193_at / RFU TMEM53 (11763286_at) / Fold change /veh TMEM53 (11763286_at) / RFU MAGEB2 (11727129_at) / Fold change /veh MAGEB2 (11727129_at) / RFU TMEM200A (11744735_a_at) / Fold change /veh TMEM200A (11744735_a_at) / RFU CCDC152 (11751479_a_at) / Fold change /veh CCDC152 (11751479_a_at) / RFU FAM211A (11726209_a_at) / Fold change /veh FAM211A (11726209_a_at) / RFU RGS16 (11746705_a_at) / Fold change /veh RGS16 (11746705_a_at) / RFU VCAN (11755009_s_at) / Fold change /veh VCAN (11755009_s_at) / RFU RHOB (11743442_s_at) / Fold change /veh RHOB (11743442_s_at) / RFU RGS16 (11720943_a_at) / Fold change /veh RGS16 (11720943_a_at) / RFU RGS16 (11720944_at) / Fold change /veh RGS16 (11720944_at) / RFU, VPS4B / Fold change vs veh, VPS4B / RFU, CREB1 / Fold change vs veh, CREB1 / RFU, DNAJC13 / Fold change vs veh, DNAJC13 / RFU, GNAQ / Fold change vs veh, GNAQ / RFU, CDK5R1 / Fold change vs veh, CDK5R1 / RFU, ZRANB3 / Fold change vs veh, ZRANB3 / RFU, CUL4A / Fold change vs veh, CUL4A / RFU, CCNY / Fold change vs veh, CCNY / RFU, UFL1 / Fold change vs veh, UFL1 / RFU, COG3 / Fold change vs veh, COG3 / RFU, DIAPH2 / Fold change vs veh, DIAPH2 / RFU, SKA2 / Fold change vs veh, SKA2 / RFU, AFF3 / Fold change vs veh, AFF3 / RFU, LMF1 / Fold change vs veh, LMF1 / RFU, IPO11 / Fold change vs veh, IPO11 / RFU, DFFB / Fold change vs veh, DFFB / RFU, FOXP1 / Fold change vs veh, FOXP1 / RFU, CARD8 / Fold change vs veh, CARD8 / RFU, STRN3 / Fold change vs veh, STRN3 / RFU, ADK / Fold change vs veh, ADK / RFU, RASSF2 / Fold change vs veh, RASSF2 / RFU, WIPF1 / Fold change vs veh, WIPF1 / RFU, LARP1B / Fold change vs veh, LARP1B / RFU, RASA1 / Fold change vs veh, RASA1 / RFU, RB1 / Fold change vs veh, RB1 / RFU, PPFIA1 / Fold change vs veh, PPFIA1 / RFU, MAT2A / Fold change vs veh, MAT2A / RFU, CCT5 / Fold change vs veh, CCT5 / RFU, WDR92 / Fold change vs veh, WDR92 / RFU, CUX1 / Fold change vs veh, CUX1 / RFU, TTC7A / Fold change vs veh, TTC7A / RFU, TMEM135 / Fold change vs veh, TMEM135 / RFU, DEPTOR / Fold change vs veh, DEPTOR / RFU, CPM / Fold change vs veh, CPM / RFU, DNAJB6 / Fold change vs veh, DNAJB6 / RFU, CACNA2D3 / Fold change vs veh, CACNA2D3 / RFU, DTX4 / Fold change vs veh, DTX4 / RFU, TFCP2 / Fold change vs veh, TFCP2 / RFU, GMCL1 /// GMCL1P1 / Fold change vs veh, GMCL1 /// GMCL1P1 / RFU, AEBP2 / Fold change vs veh, AEBP2 / RFU, SNHG1 /// SNORD22 /// SNORD25 /// SNORD26 /// SNORD27 /// SNORD28 /// SNORD29 /// SNORD31 / Fold change vs veh, SNHG1 /// SNORD22 /// SNORD25 /// SNORD26 /// SNORD27 /// SNORD28 /// SNORD29 /// SNORD31 / Fold change (Aza/veh), C12orf56 (ProbeSet 11735607_a_at) / Fold change (ACY-1035/veh), C12orf56 (ProbeSet 11735607_a_at) / Fold change (Aza/veh), FGFR1OP (ProbeSet 11751329_s_at) / Fold change (ACY-1035/veh), FGFR1OP (ProbeSet 11751329_s_at) / Fold change (Aza/veh), VPS36 (ProbeSet 11739960_a_at) / Fold change (ACY-1035/veh), VPS36 (ProbeSet 11739960_a_at) / RFU SYPL1 (11715823_x_at) / Fold change /veh SYPL1 (11715823_x_at) / RFU IGFBP7 (11715501_s_at) / Fold change /veh IGFBP7 (11715501_s_at) / RFU REEP3 (11722064_at) / Fold change /veh REEP3 (11722064_at) / RFU IGLL1 (11728026_x_at) / Fold change /veh IGLL1 (11728026_x_at): dose or concentration left out as unconfirmed
Conditions: ProbeSet 11740011_at; LIST B

Nc1ccc(-c2cccs2)cc1NC(=O)c1ccc2c(c1)cc(C1CC1)n2CCN1CCOCC1 [ACY-1035]
Fold change vs veh, ZFP14: 1.03
